The values below are quoted from earlier work in publication PMC2981028 (Cancer research, 2010).

The term IC50 denotes the midpoint of a concentration-inhibition curve.

One data set concerns the target insulin receptor (IR) (Homo sapiens, UniProt P06213). Nature of the data set: inhibition of IR phosphorylation in vitro. In kind it is cell-based.
Data set [1] addresses type 1 insulin-like growth factor receptor (IGF-1R) (Homo sapiens, UniProt P08069). The experiment in a line: inhibition of IGF-1R phosphorylation in vitro. In kind it is cell-based.

Structures are written as SMILES.

Sequence of insulin receptor (IR) (P06213 28-758): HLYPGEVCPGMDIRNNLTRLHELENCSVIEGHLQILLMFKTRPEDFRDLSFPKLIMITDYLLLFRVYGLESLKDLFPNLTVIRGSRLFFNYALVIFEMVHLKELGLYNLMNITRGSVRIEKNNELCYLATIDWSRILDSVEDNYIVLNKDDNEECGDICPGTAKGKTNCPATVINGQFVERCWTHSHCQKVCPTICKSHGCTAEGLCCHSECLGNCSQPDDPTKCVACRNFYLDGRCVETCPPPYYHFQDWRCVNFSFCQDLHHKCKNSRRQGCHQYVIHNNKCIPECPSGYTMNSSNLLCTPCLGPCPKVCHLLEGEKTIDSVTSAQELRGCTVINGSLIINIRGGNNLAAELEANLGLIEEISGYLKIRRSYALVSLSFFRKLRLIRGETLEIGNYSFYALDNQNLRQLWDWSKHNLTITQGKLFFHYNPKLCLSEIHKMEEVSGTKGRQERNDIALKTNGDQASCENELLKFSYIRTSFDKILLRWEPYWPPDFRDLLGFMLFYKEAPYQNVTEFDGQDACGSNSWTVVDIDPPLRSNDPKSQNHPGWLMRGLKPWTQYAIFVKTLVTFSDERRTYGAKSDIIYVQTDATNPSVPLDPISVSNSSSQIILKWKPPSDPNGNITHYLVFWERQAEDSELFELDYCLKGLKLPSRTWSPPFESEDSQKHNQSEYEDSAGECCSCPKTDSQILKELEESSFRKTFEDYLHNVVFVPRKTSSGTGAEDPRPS
Sequence of insulin receptor (IR) (P06213 763-1382): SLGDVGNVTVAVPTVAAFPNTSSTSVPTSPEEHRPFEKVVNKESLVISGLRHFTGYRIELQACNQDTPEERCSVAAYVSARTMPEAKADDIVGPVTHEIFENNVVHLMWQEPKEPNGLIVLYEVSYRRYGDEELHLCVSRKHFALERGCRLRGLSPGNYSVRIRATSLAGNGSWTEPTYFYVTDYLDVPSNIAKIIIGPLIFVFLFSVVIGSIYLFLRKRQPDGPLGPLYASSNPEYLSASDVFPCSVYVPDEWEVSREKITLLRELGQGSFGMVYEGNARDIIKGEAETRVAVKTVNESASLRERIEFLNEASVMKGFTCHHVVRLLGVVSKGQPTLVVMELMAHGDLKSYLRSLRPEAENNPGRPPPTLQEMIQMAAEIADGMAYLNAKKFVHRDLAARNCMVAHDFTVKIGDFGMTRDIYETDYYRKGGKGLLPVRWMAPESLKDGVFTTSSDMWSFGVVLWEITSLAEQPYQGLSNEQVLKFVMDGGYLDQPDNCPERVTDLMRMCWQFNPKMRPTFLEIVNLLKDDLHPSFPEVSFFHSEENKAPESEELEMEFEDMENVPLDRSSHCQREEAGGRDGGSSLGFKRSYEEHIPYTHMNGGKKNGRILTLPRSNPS
Sequence of type 1 insulin-like growth factor receptor (IGF-1R) (P08069 31-736): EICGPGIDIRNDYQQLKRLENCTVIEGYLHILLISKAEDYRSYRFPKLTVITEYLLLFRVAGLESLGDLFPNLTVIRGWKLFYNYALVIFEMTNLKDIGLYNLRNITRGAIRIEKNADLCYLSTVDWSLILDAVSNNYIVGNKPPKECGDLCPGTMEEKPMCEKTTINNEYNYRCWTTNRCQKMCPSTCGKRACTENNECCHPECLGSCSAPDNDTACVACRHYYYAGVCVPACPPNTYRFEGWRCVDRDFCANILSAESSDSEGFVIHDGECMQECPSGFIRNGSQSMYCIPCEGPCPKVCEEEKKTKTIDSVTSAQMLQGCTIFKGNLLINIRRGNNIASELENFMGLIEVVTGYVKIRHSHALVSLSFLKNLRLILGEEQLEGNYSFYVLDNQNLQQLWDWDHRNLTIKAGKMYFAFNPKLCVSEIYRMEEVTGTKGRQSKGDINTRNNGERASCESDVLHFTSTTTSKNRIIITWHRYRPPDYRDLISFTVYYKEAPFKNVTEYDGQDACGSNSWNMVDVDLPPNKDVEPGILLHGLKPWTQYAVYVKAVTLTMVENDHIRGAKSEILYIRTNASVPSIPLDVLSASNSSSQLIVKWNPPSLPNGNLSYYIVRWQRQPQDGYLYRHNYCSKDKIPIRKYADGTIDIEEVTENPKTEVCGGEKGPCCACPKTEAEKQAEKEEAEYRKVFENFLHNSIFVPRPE
Sequence of type 1 insulin-like growth factor receptor (IGF-1R) (P08069 741-1367): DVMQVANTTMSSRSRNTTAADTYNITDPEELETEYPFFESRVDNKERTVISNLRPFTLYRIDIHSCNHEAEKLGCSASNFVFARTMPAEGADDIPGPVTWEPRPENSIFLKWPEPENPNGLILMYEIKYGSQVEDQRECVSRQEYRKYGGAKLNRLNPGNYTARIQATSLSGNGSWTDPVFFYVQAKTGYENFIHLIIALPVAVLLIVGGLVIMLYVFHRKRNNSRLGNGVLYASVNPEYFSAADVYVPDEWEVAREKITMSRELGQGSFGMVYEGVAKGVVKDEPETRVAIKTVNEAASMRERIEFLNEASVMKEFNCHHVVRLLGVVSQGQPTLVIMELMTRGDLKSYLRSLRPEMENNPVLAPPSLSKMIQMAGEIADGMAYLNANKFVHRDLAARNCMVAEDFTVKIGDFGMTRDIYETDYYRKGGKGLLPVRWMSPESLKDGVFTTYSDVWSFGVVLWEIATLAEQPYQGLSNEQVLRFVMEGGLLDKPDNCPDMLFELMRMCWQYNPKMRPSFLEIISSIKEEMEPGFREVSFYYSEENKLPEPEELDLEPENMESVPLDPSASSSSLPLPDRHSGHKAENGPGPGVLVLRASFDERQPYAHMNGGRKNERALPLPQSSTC

As to `Cc1cc(Nc2cc(C)[nH]n2)nc(N2CCC[C@H]2c2cc(-c3ccccn3)no2)n1` [AZ12253801], the IC50 on insulin receptor (IR) was 19 nM; in data set [1], 2.1 nM.
